Measurements taken from doi:10.1101/435867v2 (biorxiv, 2018).

What was measured:
GLO1 [1] = target: T1, GLO1 (Homo sapiens, UniProt Q04760); assay: fluorescence spectroscopy; assay type: binding
T1 sequence (Q04760 2-184): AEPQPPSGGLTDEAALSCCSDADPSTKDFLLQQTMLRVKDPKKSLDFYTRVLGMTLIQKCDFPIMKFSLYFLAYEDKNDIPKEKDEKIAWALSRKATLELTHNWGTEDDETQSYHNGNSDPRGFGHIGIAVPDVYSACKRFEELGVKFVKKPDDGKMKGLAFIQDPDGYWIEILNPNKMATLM

GLO1 in PC12 cells = target: T2, GLO1 in PC12 cells (Rattus norvegicus, UniProt Q6P7Q4); assay: cellular thermal shift assay; assay type: cell-based; details: half-maximal thermal stabilization
T2 sequence (Q6P7Q4 2-184): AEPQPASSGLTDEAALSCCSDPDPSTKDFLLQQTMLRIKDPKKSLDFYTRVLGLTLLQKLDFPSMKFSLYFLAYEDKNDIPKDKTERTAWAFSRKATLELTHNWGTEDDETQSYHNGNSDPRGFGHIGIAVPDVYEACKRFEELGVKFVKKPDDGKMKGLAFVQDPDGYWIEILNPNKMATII

GLO1 [2] = target: T1, GLO1; assay: fluorescence spectroscopy; assay type: binding; details: 298 K, 5 μM GLO1

Structure (SMILES): O=c1cc(-c2ccc(O)c(O)c2)oc2cc(O)cc(O)c12 [luteolin]
- Kd (GLO1 [1]): 47.2 µM
- EC50 (GLO1 in PC12 cells): 45.2 µM
- Ka (GLO1 [2]): 21200 L/mol
